Reference: PubChem BioAssay (NCI)
Values after ≈ are worked out from the molar mass of the structure shown.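 Five compound concentrations were applied to cells in 96-well plates for 48 hours; endpoints were derived by simple linear interpolation of the resulting dose-response curve. Abbreviation: GI50, concentration required for 50% inhibition of growth. Definition used: TGI = concentration required for complete inhibition of growth.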

Experiments:
Assay in all cases: DTP human tumour cell line panel, 48 h
HCT-116 colon = system: HCT-116 colon
MOLT-4 leukemia = system: MOLT-4 leukemia
M19-MEL melanoma = system: M19-MEL melanoma
KM12 colon = system: KM12 colon
M14 melanoma = system: M14 melanoma
LOX IMVI melanoma = system: LOX IMVI melanoma
SK-MEL-5 melanoma = system: SK-MEL-5 melanoma
UACC-257 melanoma = system: UACC-257 melanoma
SNB-75 CNS = system: SNB-75 CNS
MCF7 breast = system: MCF7 breast

Row | Structure (SMILES) | TGI (HCT-116 colon) | TGI (MOLT-4 leukemia) | TGI (M19-MEL melanoma) [µM] | TGI (KM12 colon) | TGI (M14 melanoma) | TGI (LOX IMVI melanoma) | TGI (SK-MEL-5 melanoma) | TGI (UACC-257 melanoma) | TGI (SNB-75 CNS) | TGI (MCF7 breast) | GI50 (SK-MEL-5 melanoma) [µg/mL] | GI50 (HCT-116 colon) [µg/mL] | GI50 (MOLT-4 leukemia) [µg/mL] | GI50 (KM12 colon) [µg/mL] | GI50 (M14 melanoma) [µg/mL] | GI50 (LOX IMVI melanoma) [µg/mL] | GI50 (MCF7 breast) [µg/mL] | GI50 (UACC-257 melanoma) [µg/mL] | GI50 (SNB-75 CNS) [µg/mL]
1 | O=C1CC2CC3OC3[C@H]3c4cc5c(cc4C(=O)N1C23)OCO5 (stereo partly specified) | > 100 µM | > 100 µM | > 100 | > 100 µM | > 100 µM | > 100 µM |  |  |  |  |  |  |  |  |  |  |  |  | 
2 | CC(=O)Nc1ccc(C(=O)NN2C(=O)C(Cl)/C2=C/c2ccco2)cc1 (stereo unspecified) | > 100 µM | > 100 µM | > 100 | > 100 µM |  |  | > 100 µM | > 100 µM | > 100 µM |  |  |  |  |  |  |  |  |  | 
3 | COc1cc(C(C)O)c(S(=O)(=O)CC(C)O)nn1 (stereo unspecified) | > 100 µM | > 100 µM |  | > 100 µM | > 100 µM | > 100 µM | > 100 µM | > 100 µM |  | > 100 µM |  |  |  |  |  |  |  |  | 
4 | Nc1[nH]nc(Nc2ccc(Cl)cc2)c1P(=O)(c1ccccc1)c1ccccc1 |  | > 100 µM |  | 37.5 µM | 54.6 µM | > 100 µM | 67.7 µM | > 100 µM | 51.8 µM | > 100 µM |  |  |  |  |  |  |  |  | 
5 | CC(=O)c1c(C)nc(SSc2nc(C)c(C(C)=O)c(-c3ccc(Cl)cc3)c2C#N)c(C#N)c1-c1ccc(Cl)cc1 | > 150 µg/mL | > 150 µg/mL |  | > 150 µg/mL | > 150 µg/mL | > 150 µg/mL | > 150 µg/mL | > 150 µg/mL | 80.3 µg/mL | > 150 µg/mL | 61.7 (≈ 102 µM) | 94.4 (≈ 156 µM) | 134 (≈ 222 µM) | 133 (≈ 220 µM) | 81.5 (≈ 135 µM) | 49.2 (≈ 81.6 µM) | > 150 | > 150 | 23.3 (≈ 38.7 µM)
6 | CC(=O)OCC1OC(n2cc(F)c(=O)[nH]c2=O)C(NC(=O)OCc2ccccc2)C(OC(C)=O)C1OC(C)=O (stereo unspecified) | > 100 µM | > 100 µM | > 100 | > 100 µM |  | > 100 µM | > 100 µM | > 100 µM | > 100 µM | > 100 µM |  |  |  |  |  |  |  |  | 
